Measurements taken from US20240148821A1, “PHARMACEUTICAL USE OF CYCLIC PEPTIDE COMPOUND” (CHUGAI SEIYAKU KABUSHIKI KAISHA, priority 2021, published 2024).
Numbered stars: 1 amine (or outer) side, 2 acyl side, 3 side chain; on linkers, the order of the positions; unused ones are H or OH. Bridge positions count the residues as written; N and C are the ends. Square brackets hold non-standard residues; d marks the D form. Peptide text beside a SMILES is read from it. * marks the point of attachment. hPhe(3,5-F2-4-CF3) = N[C@@H](CCc1cc(F)c(C(F)(F)F)c(F)c1)C(=O)O; hPhe(3-Cl-4-CF3) = N[C@@H](CCc1ccc(C(F)(F)F)c(Cl)c1)C(=O)O; hPhe(3-F,4-CF3) = N[C@@H](CCc1ccc(C(F)(F)F)c(F)c1)C(=O)O; NMePhe(4-CF3) = CN[C@@H](Cc1ccc(C(F)(F)F)cc1)C(=O)O; hPhe(4-CF3) = N[C@@H](CCc1ccc(C(F)(F)F)cc1)C(=O)O; NMePhe(4-Cl) = CN[C@@H](Cc1ccc(Cl)cc1)C(=O)O; NMePhe(4-Me) = CN[C@@H](Cc1ccc(C)cc1)C(=O)O; NMedβ3hAla = C[C@H](CC(=O)[*:2])N(C)[*:1]; NMeAla(cPent) = CN[C@@H](CC1CCCC1)C(=O)O; NMeGly(cPent) = CN[C@H](C(=O)O)C1CCCC1; Phe(3-I) = N[C@@H](Cc1cccc(I)c1)C(=O)O; Pro(4,4-F2) = O=C(O)[C@@H]1CC(F)(F)CN1; NMe4Pal = CN[C@@H](Cc1ccncc1)C(=O)O; NMeCha = CN[C@@H](CC1CCCCC1)C(=O)O; NMeChg = CN[C@H](C(=O)O)C1CCCCC1; NMeF = CN[C@@H](Cc1ccccc1)C(=O)O; NMeI = CC[C@H](C)[C@H](NC)C(=O)O; NMeD = CN[C@@H](CC(=O)O)C(=O)O; NMeL = CN[C@@H](CC(C)C)C(=O)O; NMeV = CN[C@H](C(=O)O)C(C)C; d(β3hA) = C[C@@H](N)CC(=O)O; NMeA = CN[C@@H](C)C(=O)O; Piperidide = C1CCN(*)CC1; Pyrrolidide = C1CCN(*)C1; Ac5c = NC1(C(=O)O)CCCC1; Aze = O=C(O)[C@@H]1CCN1; Ac4c = NC1(C(=O)O)CCC1; Sar = CNCC(=O)O

What follows are compounds tested against protein-protein interaction between Kras and SOS1 (biotin-tagged human Kras loaded with GDP, His-tagged human SOS1) (Homo sapiens (Human), UniProt P01116, G12D) (assay: Protein-protein interaction inhibition between Kras and SOS1 (KrasG12D-SOS PPI) using AlphaScreen). Conditions: AlphaScreen; biotin-tagged human Kras loaded with GDP, His-tagged human SOS1; read-out: KRAS G12D-SOS PPI IC50.
Type: biochemical
Work on CC[C@H](C)[C@@H]1NC(=O)[C@H](CC(C)C)N(C)C(=O)C[C@@H](C)N(C)C(=O)[C@H](C2CCCCC2)N(C)C(=O)C2(CCC2)NC(=O)[C@@H]2CC(F)(F)CN2C(=O)[C@H](CCc2cc(F)c(C(F)(F)F)c(F)c2)NC(=O)CN(C)C(=O)[C@H](Cc2ccc(C(F)(F)F)cc2)N(C)C(=O)[C@@H]2CCN2C(=O)[C@H](C)N(C)C1=O [Compound 34] (cyclo([Ac4c][NMeChg][NMedβ3hAla][NMeL]I[NMeA][Aze][NMePhe(4-CF3)][Sar][hPhe(3,5-F2-4-CF3)][Pro(4,4-F2)])) yielded an IC50 of 0.074 µM.
CC[C@H](C)[C@@H]1NC(=O)[C@H](CC(C)C)N(C)C(=O)C[C@@H](C(=O)N2CCCCC2)N(C)C(=O)[C@H](C2CCCCC2)N(C)C(=O)C2(CCCC2)NC(=O)[C@H](Cc2ccncc2)N(C)C(=O)[C@H](CCc2ccc(C(F)(F)F)c(Cl)c2)NC(=O)CN(C)C(=O)[C@H](CC2CCCCC2)N(C)C(=O)CN(C)C(=O)CN(C)C1=O [Compound 36] ([NMeL]I[Sar][Sar][NMeCha][Sar][hPhe(3-Cl-4-CF3)][NMe4Pal][Ac5c][NMeChg][NMeD]-Piperidide; lactam N-11) showed an IC50 of 0.0047 µM.
For CC[C@H](C)[C@@H]1NC(=O)[C@H](CC2CCCC2)N(C)C(=O)C[C@@H](C(=O)N2CCCCC2)N(C)C(=O)[C@H](C(C)C)N(C)C(=O)C2(CCCC2)NC(=O)[C@@H]2CCCN2C(=O)[C@H](CCc2ccc(C(F)(F)F)c(Cl)c2)NC(=O)CN(C)C(=O)[C@H](CC2CCCCC2)N(C)C(=O)[C@@H]2CCN2C(=O)[C@H](C)N(C)C1=O [Compound 37] ([NMeAla(cPent)]I[NMeA][Aze][NMeCha][Sar][hPhe(3-Cl-4-CF3)]P[Ac5c][NMeV][NMeD]-Piperidide; lactam N-11), the IC50 was 0.017 µM.
Compound CC[C@H](C)[C@@H]1NC(=O)[C@H](CC(C)C)N(C)C(=O)C[C@@H](C)N(C)C(=O)[C@H](C2CCCCC2)N(C)C(=O)C2(CCCC2)NC(=O)[C@@H]2CCCN2C(=O)[C@H](CCc2cc(F)c(C(F)(F)F)c(F)c2)NC(=O)CN(C)C(=O)[C@H](Cc2ccc(C(F)(F)F)cc2)N(C)C(=O)[C@@H]2CCN2C(=O)[C@H](C)N(C)C1=O [Compound 39] (cyclo([Ac5c][NMeChg][NMedβ3hAla][NMeL]I[NMeA][Aze][NMePhe(4-CF3)][Sar][hPhe(3,5-F2-4-CF3)]P)) has an IC50 of 0.011 µM.
CC[C@H](C)[C@@H]1NC(=O)[C@H](CC(C)C)N(C)C(=O)C[C@@H](C(=O)N2CCCC2)N(C)C(=O)[C@H]([C@@H](C)CC)N(C)C(=O)C2(CCCC2)NC(=O)[C@@H]2CCCN2C(=O)[C@H](CCc2ccc(C(F)(F)F)c(F)c2)NC(=O)CN(C)C(=O)[C@H](Cc2ccc(C)cc2)N(C)C(=O)[C@@H]2CCN2C(=O)[C@H](C)N(C)C1=O [Compound 44] ([NMeL]I[NMeA][Aze][NMePhe(4-Me)][Sar][hPhe(3-F,4-CF3)]P[Ac5c][NMeI][NMeD]-Pyrrolidide; lactam N-11) gave an IC50 of 0.0011 µM.
CC[C@H](C)[C@@H]1NC(=O)[C@H](CC(C)C)N(C)C(=O)C[C@@H](C)N(C)C(=O)[C@H](C2CCCC2)N(C)C(=O)C2(CCCC2)NC(=O)[C@@H]2CCCN2C(=O)[C@H](CCc2ccc(C(F)(F)F)c(F)c2)NC(=O)CN(C)C(=O)[C@H](CC2CCCCC2)N(C)C(=O)[C@@H]2CCN2C(=O)[C@H](C)N(C)C1=O [Compound 49] (cyclo([Ac5c][NMeGly(cPent)][NMedβ3hAla][NMeL]I[NMeA][Aze][NMeCha][Sar][hPhe(3-F,4-CF3)]P)) was tested, and the IC50 was 0.012 µM.
CC[C@H](C)[C@@H]1NC(=O)[C@H](C)N(C)C(=O)C[C@@H](C)NC(=O)[C@H](C(C)C)N(C)C(=O)[C@H](Cc2ccccc2)N(C)C(=O)[C@H](CC(C)C)N(C)C(=O)[C@H](CCc2ccc(C(F)(F)F)cc2)NC(=O)CN(C)C(=O)[C@H](Cc2ccc(Cl)cc2)N(C)C(=O)CN(C)C(=O)CN(C)C1=O [Compound 51] (cyclo(I[Sar][Sar][NMePhe(4-Cl)][Sar][hPhe(4-CF3)][NMeL][NMeF][NMeV][d(β3hA)][NMeA])) showed an IC50 of 0.09 µM.
With CC[C@H](C)[C@@H]1NC(=O)[C@H](C2CCCCC2)N(C)C(=O)C[C@@H](C(=O)N2CCCCC2)N(C)C(=O)[C@H](C(C)C)N(C)C(=O)C2(CCCC2)NC(=O)[C@@H]2CCCN2C(=O)[C@H](CCc2ccc(C(F)(F)F)c(Cl)c2)NC(=O)CN(C)C(=O)[C@H](CC2CCCCC2)N(C)C(=O)[C@@H]2CCN2C(=O)[C@H](C)N(C)C1=O [Compound 58] ([NMeChg]I[NMeA][Aze][NMeCha][Sar][hPhe(3-Cl-4-CF3)]P[Ac5c][NMeV][NMeD]-Piperidide; lactam N-11) the IC50 was 0.028 µM.
Work on CC[C@H](C)[C@@H]1NC(=O)[C@H](C)N(C)C(=O)C[C@@H](C)NC(=O)[C@H](CC(C)C)N(C)C(=O)[C@H](Cc2ccccc2)N(C)C(=O)[C@H](CC(C)C)NC(=O)[C@H](Cc2cccc(I)c2)NC(=O)CN(C)C(=O)[C@H](Cc2ccc(Cl)cc2)N(C)C(=O)CN(C)C(=O)CN(C)C1=O [Compound 65] (cyclo(I[Sar][Sar][NMePhe(4-Cl)][Sar][Phe(3-I)]L[NMeF][NMeL][d(β3hA)][NMeA])) yielded an IC50 of 0.24 µM.
